# According to patent US20230172204A1 (BASF SE, priority 2020, published 2023):
# What was measured:
# [1] = tested on: Phakopsora pachyrhizi (F129L); assay: Protective control of soybean rust on soybeans (PHAKPA P2); type: in vivo; conditions: soybean rust F129L; for % PHAKPA (F129L) Disease level P2 at 4 ppm: protective P2, 4 ppm; for % PHAKPA (F129L) Disease level P2 at 16 ppm: protective P2, 16 ppm
# [2] = tested on: Phakopsora pachyrhizi (F129L); assay: Protective control of soybean rust on soybeans (PHAKPA P6); type: in vivo; conditions: soybean rust F129L; for % PHAKPA (F129L) Disease level P6 at 4 ppm: protective P6, 4 ppm; for % PHAKPA (F129L) Disease level P6 at 16 ppm: protective P6, 16 ppm
SMILES,% PHAKPA (F129L) Disease level P2 at 4 ppm [1],% PHAKPA (F129L) Disease level P2 at 16 ppm [1],% PHAKPA (F129L) Disease level P6 at 4 ppm [2],% PHAKPA (F129L) Disease level P6 at 16 ppm [2]
CO/N=C(/C(=O)OC)c1cccc(C)c1CO/N=C(\C)c1c(F)cccc1F [compound 213],50%,3%,40%,11%
CNC(=O)/C(=N/OC)c1cccc(C)c1CO/N=C(\C)c1c(F)cccc1F [compound 214],14%,0%,28%,4%
CO/N=C(/C(=O)OC)c1cccc(C)c1CO/N=C(\CC1CC1)c1cccc(C(F)(F)F)c1 [compound 215],87%,37%,87%,33%
CO/N=C(/C(=O)OC)c1cccc(C)c1CO/N=C(\C)c1ccccc1C1CC1 [compound 217],97%,53%,93%,100%
CO/N=C(/C(=O)OC)c1cccc(C)c1CO/N=C(\C)c1ccccc1C(C)C [compound 218],100%,87%,100%,100%
CNC(=O)/C(=N/OC)c1cccc(C)c1CO/N=C(\C)c1ccccc1C1CC1 [compound 219],60%,8%,87%,43%
CNC(=O)/C(=N/OC)c1cccc(C)c1CO/N=C(\C)c1ccccc1C(C)C [compound 220],90%,30%,100%,77%
CNC(=O)/C(=N/OC)c1cccc(C)c1CO/N=C(\C)c1ccccc1CC(C)C [compound 221],100%,63%,100%,100%
CO/N=C(/C(=O)OC)c1cccc(C)c1CO/N=C(\C)c1ccccc1CC(F)(F)F [compound 222],100%,57%,100%,93%
CNC(=O)/C(=N/OC)c1cccc(C)c1CO/N=C(\C)c1ccccc1CC(F)(F)F [compound 223],4%,0%,28%,0%
CO/N=C(/C(=O)OC)c1cccc(C)c1CO/N=C(\C)c1ccccc1C#N [compound 224],97%,100%,100%,100%
CNC(=O)/C(=N/OC)c1cccc(C)c1CO/N=C(\C)c1ccccc1C#N [compound 225],83%,27%,100%,97%
CNC(=O)/C(=N/OC)c1cccc(C)c1CO/N=C(\C)c1cccc(OC/C(C)=N/OC)c1 [compound 226],28%,3%,57%,7%
CO/N=C(\C)COc1cccc(/C(C)=N/OCc2c(C)cccc2/C(=N\OC)C(=O)OC)c1 [compound 227],100%,47%,100%,57%
CNC(=O)/C(=N/OC)c1cccc(C)c1CO/N=C(\C)c1cc(Cl)cc(C(F)(F)F)c1 [compound 228],5%,0%,22%,2%
CO/N=C(/C(=O)OC)c1cccc(C)c1CO/N=C(\C)c1ccc(C)c(C(F)(F)F)c1 [compound 229],27%,2%,77%,6%
CNC(=O)/C(=N/OC)c1cccc(C)c1CO/N=C(\C)c1ccc(C)c(C(F)(F)F)c1 [compound 230],22%,1%,73%,4%
CNC(=O)/C(=C/OC)c1cccc(C)c1CO/N=C(\C)c1cccc(C(F)(F)F)c1 [compound 232],100%,73%,100%,83%
CNC(=O)/C(=N/OC)c1cccc(C)c1CO/N=C(\C)c1c(F)ccc(C(F)(F)F)c1NC [compound 233],100%,57%,87%,27%
CNC(=O)/C(=N/OC)c1cccc(C)c1CO/N=C(\CC1CC1)c1cccc(C(F)(F)F)c1 [compound 234],53%,18%,53%,15%
CNC(=O)/C(=N/OC)c1cccc(C)c1CO/N=C(\CC(C)C)c1cccc(C(F)(F)F)c1 [compound 235],100%,73%,87%,77%
CO/N=C(/C(=O)OC)c1cccc(C)c1CO/N=C(\C)c1ccccc1OC(F)(F)F [compound 236],97%,77%,97%,100%
CNC(=O)/C(=N/OC)c1cccc(C)c1CO/N=C(\C)c1cc(C(F)(F)F)cc(F)c1NC [compound 238],100%,53%,100%,77%
CO/N=C(/C(=O)OC)c1cccc(C)c1CO/N=C(\C)c1cc(Br)cc(F)c1F [compound 240],70%,8%,73%,3%
CNC(=O)/C(=N/OC)c1cccc(C)c1CO/N=C(\C)c1cc(Br)cc(F)c1F [compound 241],3%,0%,33%,12%
C#Cc1cc(F)c(F)c(/C(C)=N/OCc2c(C)cccc2/C(=N\OC)C(=O)OC)c1 [compound 242],87%,10%,87%,20%
